In patent publication US20110306641A1, “NOVEL 2,6-SUBSTITUTED-3-NITROPYRIDINE DERIVATIVE, METHOD FOR PREPARING SAME, AND PHARMACEUTICAL PREPARATION INCLUDING SAME” (priority 2008, published 2011):

Assays:
Calvarial cell = assay: Cytotoxicity test (MTT) in osteoblasts (calvarial cells); details: 1 μM, 72 hours, vs vehicle control
Procedure: Drugs were diluted to a concentration of 2 μM in α-MEM culture media supplemented with 10% FBS. The vehicle control group was established to contain 0.2% DMSO. 100 μL/well of the diluted drugs were dispensed into 96-well plates to which osteoblasts (calvarial cells) prepared in Experimental Example 1 were then added at a density of 1.0×10^4 cells/100 μL/well. Here, the final compound concentration in the cell culture was 1 μM, and the vehicle control group contained 0.1% DMSO. The cells were cultured in a 5% CO2 inhibitorr at 37° for 72 hours. 25 μL of 3-(4,5-dimethyl-2-thiazolyl)-2,5-diphenyl-2H-tetrazolium bromide (MTT) dissolved in PBS (2 mg/mL) was added to each cell culture 4 hours before the end of culture. After completion of the reaction, the plates were centrifuged, the media were discarded, and 100 μL of formazan was added and dissolved in dimethyl sulfoxide (DMSO). Finally, the absorbance of the developed plates was measured at 540 nm. The cell viability was expressed as % concentration in comparison with the vehicle control group.

[1] = tested on: osteoclastogenesis (formation of multinucleated osteoclasts); assay: Osteoclastogenesis inhibition via co-culture system (bone marrow cells + osteoblasts, TRAP staining); format: cell-based, mouse; details: Mus musculus, Osteoclast, 168 h, 7 days co-culture, vs vehicle control
Procedure: Osteoclastogenesis inhibitory effects of the compounds of the present invention were evaluated via a co-culture system (Reference: Endocrinology 137(1996), 2187 to 2190, E. Jimi et al.). A specific experimental method is as follows.
1) Preparation of Bone Marrow Cells and Osteoblasts
Femur and tibia were aseptically dissected from 6 to 8-week-old male ddY mice to harvest bone marrow cells by a conventional method using a syringe. In brief, tissues were removed from the dissected bone, the bone ends were cut off with scissors, and the bone marrow was isolated by pushing a medium-containing syringe (23G) against the one end of the cut bone. The isolated bone marrow was subjected to repeated piston movement of a syringe such that single cells were obtained (Reference: Endocrinology 123(1988), 2600 to 2602, Takahashi et al.). After removal of red blood cells within the bone marrow, the bone marrow cells recovered by centrifugation were placed in an α-MEM supplemented with 10% fetal bovine serum (FBS), followed by counting of nucleated cells and then were immediately used for a co-culture system.
For the preparation of osteoblasts (Calvarial cells), the cranial bone were aseptically dissected from 1 to 2-day-old neonatal ICR mice and subjected to continuous reaction with a 0.2% collagenase solution to separate osteoblasts. The cell-suspended supernatant was centrifuged to recover osteoblasts which were grown to full confluence in an α-MEM supplemented with 10% FBS and then diluted to a desired cell density for use in the experiment.
2) Osteoclastogenesis Inhibition Experiment Via Co-Culture System
As the medium used for a co-culture system, a differentiation medium with the addition of differentiation factors 1α,25-dihydroxyvitamin D3 (10^−8M) and dexamethasone (10^−8M) to α-MEM supplemented with 10% FBS was used for the induction of osteoclastogenesis. First, the compounds of the present invention dissolved in dimethyl sulfoxide (DMSO) at a concentration of 1 mM were diluted to 2 μM using the above-mentioned differentiation medium. As a vehicle control group, 0.2% (v/v) DMSO was added to the medium. 100 μL/well of each medium was added to 96-well plates. In addition, the above prepared bone marrow cells and osteoblasts were plated onto 96-well plates at a density of 1×10^5 cells/50 μL/well and 3×10^3 cells/50 μL/well, respectively. The total volume/well was 200 μL and the final compound concentration was 1 μM. The control group was 0.1% (v/v) DMSO. The cells were cultured with exchange of the culture media with fresh media containing differentiation factors and test materials (materials containing the compounds of the present invention) at an interval of 2 to 3 days.
7 days after culturing of cells, the formation of multinucleated osteoclasts was confirmed by microscopic examination, the medium was removed from the wells and then the cells were fixed in a 10% phosphate-buffered formalin solution. The degree of formation of mature osteoclasts was measured taking advantage of the characteristics of osteoclasts showing a positive reaction to a tartrate-resistant acid phosphatase (TRAP) staining solution. The TRAP staining solution was prepared in a manner such that naphthol AS-MS phosphate as a substrate and a coloring agent (Fast Red Violet LB salt) were dissolved in N,N-dimethylformamide, and a 0.1N NaHCO3 buffer solution containing 50 mM of tartaric acid was added thereto. Among the TRAP-positive cells under a light microscope, multinucleated osteoclasts having 6 to 7 nuclei were regarded as mature osteoclasts.
The degree of inhibition of osteoclastogenesis was calculated according to the following equation 1. The results are summarized in Table 2 below (Experiments were carried out for 4 wells/experimental group (n=4), and the results are given in terms of mean±standard deviation) […]

Row | SMILES | Cell viability (%) Calvarial cell (Calvarial cell) [%] | inhibition at 1 µM [1] [%]
1 | O=[N+]([O-])c1ccc(NCc2cccnc2)nc1Nc1ccc2cn[nH]c2c1 [Compound 46, 2-(1H-indazo-6-yl)amino-6-[(3-pyridyl)methylamino]-3-nitropyridine] | 99 | 
2 | Cc1cncn1-c1ccc([N+](=O)[O-])c(Nc2ccc3[nH]ncc3c2)n1 [Compound 4, 2-(1H-indazol-5-yl)amino-6-(5-methylimidazol-1-yl)-3-nitropyridine] | 101 | 67
3 | NC1CCN(c2ccc([N+](=O)[O-])c(Nc3ccc4[nH]ncc4c3)n2)CC1 [Compound 51, 2-(1H-indazol-5-yl)amino-6-[(4-amino)piperidino]-3-nitropyridine] | 73 | 
4 | C[C@@H](CO)Nc1ccc([N+](=O)[O-])c(Nc2ccc3cn[nH]c3c2)n1 [Compound 18, 2-(1H-indazol-6-yl)amino-6-[(1-(S)-methyl-2-hydroxyethyl)-amino]-3-nitropyridine] | 98 | 
5 | CNc1ccc([N+](=O)[O-])c(Nc2ccc3cn[nH]c3c2)n1 [Compound 31, 2-(1H-indazol-6-yl)amino-6-(methylamino)-3-nitropyridine] | 97 | 
6 | O=[N+]([O-])c1ccc(NCCc2ccccn2)nc1Nc1ccc2[nH]ncc2c1 [Compound 27, 2-(1H-indazol-5-yl)amino-6-[(2-pyridyl)ethylamino]-3-nitropyridine] | 97 | 90
7 | O=[N+]([O-])c1ccc(NCCc2c[nH]cn2)nc1Nc1ccc2[nH]ncc2c1 [Compound 48, 2-(1H-indazol-5-yl)amino-6-[(imidazol-4-yl)ethylamino]-3-nitropyridine] | 96 | 
8 | Nc1ccc([N+](=O)[O-])c(Nc2ccc3[nH]ncc3c2)n1 [Compound 32, 2-(1H-indazol-5-yl)amino-6-amino-3-nitropyridine] | 99 | 100
9 | CC1CN(c2ccc([N+](=O)[O-])c(Nc3ccc4[nH]ncc4c3)n2)CC(C)N1 (centres unmarked) [Compound 44, 2-(1H-indazol-5-yl)amino-6-(3,5-dimethylpiperazin-1-yl)-3-nitropyridine] | 96 | 90
10 | O=[N+]([O-])c1ccc(NCCCn2ccnc2)nc1Nc1ccc2[nH]ncc2c1 [Compound 29, 2-(1H-indazol-5-yl)amino-6-[3-(imidazol-1-yl)propylamino]-3-nitropyridine] | 117 | 73
11 | CC(C)(C)NNc1ccc([N+](=O)[O-])c(Nc2ccc3[nH]ncc3c2)n1 [Compound 43, 2-(1H-indazol-5-yl)amino-6-[(t-butylamino)amino]-3-nitropyridine] | 100 | 
12 | Cc1nccn1-c1ccc([N+](=O)[O-])c(Nc2ccc3[nH]ncc3c2)n1 [Compound 2, 2-(1H-indazol-5-yl)amino-6-(2-methylimidazol-1-yl)-3-nitropyridine] | 104 | 70
13 | NC1CCCCC1Nc1ccc([N+](=O)[O-])c(Nc2ccc3[nH]ncc3c2)n1 (centres unmarked) [Compound 30, 2-(1H-indazol-5-yl)amino-6-[(2-aminocyclohexyl)amino]-3-nitropyridine] | 114 | 100
14 | CN1CCN(c2ccc([N+](=O)[O-])c(Nc3ccc4cn[nH]c4c3)n2)CC1 [Compound 40, 2-(1H-indazol-6-yl)amino-6-(4-methylpiperazin-1-yl)-3-nitropyridine] | 95 | 
15 | O=[N+]([O-])c1ccc(NCc2cccnc2)nc1Nc1ccc2[nH]ncc2c1 [Compound 45, 2-(1H-indazol-5-yl)amino-6-[(3-pyridyl)methylamino]-3-nitropyridine] | 103 | 
16 | C[C@@H](CO)Nc1ccc([N+](=O)[O-])c(Nc2ccc3[nH]ncc3c2)n1 [Compound 36, 2-(1H-indazol-5-yl)amino-6-[(1-(S)-methyl-2-hydroxyethyl)-amino]-3-nitropyridine] | 103 | 72
17 | CN1CCN(Nc2ccc([N+](=O)[O-])c(Nc3ccc4[nH]ncc4c3)n2)CC1 [Compound 42, 2-(1H-indazol-5-yl)amino-6-[(4-methylpiperazin-1-yl)amino]-3-nitropyridine] | 106 | 
18 | O=[N+]([O-])c1ccc(N2CCN(CCO)CC2)nc1Nc1ccc2[nH]ncc2c1 [Compound 15, 2-(1H-indazol-5-yl)amino-6-[4-(2-hydroxyethyl)piperazin-1-yl]-3-nitropyridine] | 90 | 98
19 | O=[N+]([O-])c1ccc(N2CCNCC2)nc1Nc1ccc2cn[nH]c2c1 [Compound 38, 2-(1H-indazol-6-yl)amino-6-(piperazin-1-yl)-3-nitropyridine] | 91 | 90
20 | O=[N+]([O-])c1ccc(N2CCC(O)CC2)nc1Nc1ccc2cn[nH]c2c1 [Compound 41, 2-(1H-indazol-6-yl)amino-6-(4-hydroxypiperidino)-3-nitropyridine] | 98 | 
21 | O=[N+]([O-])c1ccc(NCc2ccncc2)nc1Nc1ccc2[nH]ncc2c1 [Compound 47, 2-(1H-indazol-5-yl)amino-6-[(4-pyridyl)methylamino]-3-nitropyridine] | 102 | 71
22 | CC1(C)CN(c2ccc([N+](=O)[O-])c(Nc3ccc4[nH]ncc4c3)n2)CC(C)(C)N1 [Compound 13, 2-(1H-indazol-5-yl)amino-6-(2,2,6,6-tetramethylpiperazin-4-yl)-3-nitropyridine] | 94 | 88
23 | O=[N+]([O-])c1ccc(NCCN2CCOCC2)nc1Nc1ccc2cn[nH]c2c1 [Compound 28, 2-(1H-indazol-6-yl)amino-6-(2-morpholinoethylamino)-3-nitropyridine] | 104 | 74
24 | NCCCCNc1ccc([N+](=O)[O-])c(Nc2ccc3[nH]ncc3c2)n1 [Compound 50, 2-(1H-indazol-5-yl)amino-6-(4-amino-n-butylamino)-3-nitropyridine] | 95 | 100
